Laboratory results: paper PMC7436013, “Design, Synthesis, and Biological Investigation of Novel Classes of 3-Carene-Derived Potent Inhibitors of TDP1” (Molecules, 2020)
“Also recorded” adds a separate entry of the source.

Experiments:
TDP1 = biological target: T1, TDP1 (Homo sapiens, UniProt Q9NUW8); assay: Real-time detection of TDP1 activity with fluorescent oligonucleotide biosensor; format: biochemical; details: for IC50: real-time fluorescent oligonucleotide biosensor, 1.5 nM TDP1, 50 nM substrate, read-out: IC50, TDP1 inhibition
T1 construct: made in house; host or cells: Escherichia coli
T1 sequence (Q9NUW8 whole entry): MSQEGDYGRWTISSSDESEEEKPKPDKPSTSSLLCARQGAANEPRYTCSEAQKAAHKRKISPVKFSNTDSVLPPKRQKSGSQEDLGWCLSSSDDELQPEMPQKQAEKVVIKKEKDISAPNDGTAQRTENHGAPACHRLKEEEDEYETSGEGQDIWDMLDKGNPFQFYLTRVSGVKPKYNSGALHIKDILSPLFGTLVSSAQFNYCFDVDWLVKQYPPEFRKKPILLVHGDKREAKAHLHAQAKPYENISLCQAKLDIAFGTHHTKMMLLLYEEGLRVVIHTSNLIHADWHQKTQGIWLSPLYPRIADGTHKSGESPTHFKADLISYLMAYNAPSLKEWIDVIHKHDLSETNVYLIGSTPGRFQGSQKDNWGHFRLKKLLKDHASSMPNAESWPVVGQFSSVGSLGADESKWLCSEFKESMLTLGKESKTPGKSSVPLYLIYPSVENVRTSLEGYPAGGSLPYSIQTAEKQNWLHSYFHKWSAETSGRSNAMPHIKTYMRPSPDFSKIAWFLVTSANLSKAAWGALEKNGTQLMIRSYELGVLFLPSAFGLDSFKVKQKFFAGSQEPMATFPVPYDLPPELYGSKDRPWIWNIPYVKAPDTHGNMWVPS
Experimental: The compounds synthesized starting from (+)-3-carene 8 were tested for their TDP1 inhibitory properties by measuring their IC50 values using a real-time fluorescent oligonucleotide biosensor [38].
A fluorophore quencher-coupled oligonucleotide biosensor was used for TDP1 enzyme activity real-time fluorescence detection. […] Recombinant protein TDP1 was expressed in Escherichia coli (pET 16B plasmid containing TDP1 cDNA was provided by Dr. K.W. Caldecott, University of Sussex, United Kingdom) and isolated as described by Lebedeva et al.. The reaction mixture contained TDP1 reaction buffer (50 mM Tris-HCl, 50 mM NaCl, 7 mM β-mercaptoethanol), 50 nM oligonucleotide substrate, varied concentrations of the tested compounds, and 1.5 nM purified TDP1 in a final volume of 200 μL.
The TDP1 reaction mixture was incubated at rt in a POLARstar OPTIMA fluorimeter (BMG LABTECH, GmbH). Fluorescence intensity was measured every 1 min (Ex485/Em520 nm). The efficiency of TDP1 inhibition was evaluated by comparing the rate of increase in the fluorescence of the biosensor in the presence of the compound to that of DMSO (1.5%) control wells. IC50 values were determined using an 11-point concentration–response curve. The data were imported into MARS Data Analysis 2.0 program (BMG LABTECH) and the slope during the linear phase was calculated. The IC50 measurements were carried out in at least three independent experiments.

in vivo Parkinson model = details: ref [24]; cited from earlier work
[1] = ref [24]; cited from earlier work
HEK293FT WT cells = assay: Colorimetric cytotoxicity test (MTT/EZ4U), HEK293FT WT; format: cell-based, human; details: Tpc 200 nM
Experimental: (§1) We analyzed, using a colorimetric test, the relative amount of viable cells after treating HEK293FT WT and TDP1-deficient (TDP1−/−) cells with increasing concentrations of Tpc for 72 h. […] Next, we studied WT and mutant cells’ live activity after Tpc treatment on the xCELLigence System (ACEA Biosciences, USA) by the impedance-based assay. HEK293FT TDP1−/− cells were more sensitive to Tpc (Figure 2B). After Tpc administration to the cells, an […] of the slope was seen, characterizing the velocity of the cell growth with Tpc as compared to the control both for WT (red columns) and mutant cells (green columns) (Figure S1, Supplementary Materials). […] The sharper decrease of the slope for the mutant cells than for the WT (compare the histogram for the 0 and 0.05 μM Tpc concentration, ~1.5 times for WT cells (red) and ~6 times for TDP1−/−cells (green)) also characterizes the higher sensitivity of the mutant to the TOP1 inhibitor. […] There was a three-fold difference for these IC50 values, which is nearly the same as for the colorimetric assay.
(§2) The cytotoxicity of the compounds was examined against human cell lines HEK293FT (human embryonic kidney), WT and TDP1-deficient (TDP1-/-), HCT116 (human colon cancer), IMR-32 (human neuroblastoma cell line), HeLa (cervical cancer), and Krebs-2 carcinoma ascites using MTT and EZ4U colorimetric tests or an xCELLigence DP Real-Time Cell Analyzer (ACEA Biosciences, San Diego, CA, USA) for HEK293FT in cells exposed to the compounds. The cells were grown in DMEM/F12 or IMDM (for IMR-32 and Krebs-2) medium (Gibco), with 1x GlutaMAX (Gibco), 50 IU/mL penicillin, 50 μg/mL streptomycin (MP Biomedicals, Irvine, CA, USA) and in the presence of 10% fetal bovine serum (Biolot). The cells (~20,000 cells per well) were incubated for 24 h at 37 °C in 5% CO2, and then treated with the tested compounds (the volume of the added reagents was 1/100 of the total volume of the culture medium, the amount of DMSO was 1% of the final volume as indicated). Control cells were grown in the presence of 1% DMSO where indicated. After 72 h of cell incubation, the relative amount of living cells was determined using a colorimetric test of the amount of formazan converted from 3-(4,5-dimethylthiazol-2-yl)-2,5-diphenyl-2H-tetrazolium bromide (MTT test) or EZ4U Cell Proliferation and Cytotoxicity Assay (Biomedica, Austria), as per the manufacturer’s protocols. The real-time detection of the living cells was done by an xCELLigence DP Real-Time Cell Analyzer (ACEA Biosciences). The measurements were carried out in three parallel experiments.

HEK293FT TDP1−/− cells = assay: Colorimetric cytotoxicity test (MTT/EZ4U), HEK293FT TDP1-/-; format: cell-based, human; details: Tpc 30 nM
Experimental: as §1, §2

[2] = test system: HeLa (cervical carcinoma); assay: Colorimetric cytotoxicity test, HeLa; format: cell-based, human
Experimental: as §2

[3] = test system: HCT116 (human colon cancer); assay: Colorimetric cytotoxicity test, HCT116; format: cell-based
Experimental: as §2

[4] = test system: IMR-32 (human neuroblastoma cell line); assay: Colorimetric cytotoxicity test, IMR-32; format: cell-based
Experimental: as §2

Krebs-2 carcinoma cells = assay: Colorimetric cytotoxicity test, Krebs-2; format: cell-based
Experimental: as §2, with “The real-time detection of the living cells was done by an xCELLigence DP Real-Time Cell Analyzer (ACEA Biosciences). The measurements were carried out in three parallel experiments.” left out

activity against TDP1 (in words) (TDP1)	IC50 (TDP1)	Compound	other results
do not exhibit activity	> 20 µM	COc1cc(C2OC(C)(C)C3CC=C(C)C2C3)ccc1O (centres unmarked) [12a]	–
–	3.35 ± 1.06 µM	CC1=CC[C@@H]2C[C@H]1[C@H](c1cccs1)OC2(C)C [12d, (1R,4R,5R)-2,2,6-trimethyl-4-(thiophen-2-yl)-3-oxabicyclo[3.3.1]non-6-ene]	–
–	2.25 ± 0.63 µM	CC1=CC[C@@H]2C[C@H]1[C@H](c1sccc1C)OC2(C)C [12e, (1R,4R,5R)-2,2,6-trimethyl-4-(3-methylthiophen-2-yl)-3-oxabicyclo[3.3.1]non-6-ene]	–

Further lines, the compound ahead of its results:

Compound	activity against TDP1 (in words) (TDP1)	IC50 (TDP1)	other results
COc1cc(C2OC(C)(C)[C@@H]3CCC(C)=C[C@H]23)ccc1O (mixture of isomers) [11a]	do not exhibit activity	> 20 µM	neuroprotective activity (in vivo Parkinson model): potent neuroprotective activity; acute toxicity [1]: low acute toxicity
C/C=C/C1OC(C)(C)[C@@H]2CCC(C)=C[C@H]12 (some centres unmarked) [11c]	do not exhibit activity	> 20 µM	–
CC1=C[C@@H]2[C@@H](c3cccs3)OC(C)(C)[C@@H]2CC1 [11d, (1S,3aR,7aS)-3,3,6-trimethyl-1-(thiophen-2-yl)-1,3,3a,4,5,7a-hexahydroisobenzofuran]	–	4.85 ± 1.06 µM	–
CC1=C[C@@H]2[C@@H](c3sccc3C)OC(C)(C)[C@@H]2CC1 [11e, (1S,3aR,7aS)-3,3,6-trimethyl-1-(3-methylthiophen-2-yl)-1,3,3a,4,5,7a-hexahydroisobenzofuran]	–	3.6 ± 1.7 µM	–
CC1=C[C@@H]2[C@@H](c3ccc(C)s3)OC(C)(C)[C@@H]2CC1 [11f, (1S,3aR,7aS)-3,3,6-trimethyl-1-(5-methylthiophen-2-yl)-1,3,3a,4,5,7a-hexahydroisobenzofuran]	–	4.7 ± 2 µM	–
CC1=C[C@@H]2[C@@H](c3ccc(Br)s3)OC(C)(C)[C@@H]2CC1 [11h, (1S,3aR,7aS)-3,3,6-trimethyl-1-(5-bromothiophen-2-yl)-1,3,3a,4,5,7a-hexahydroisobenzofuran]	–	0.75 ± 0.07 µM	effect of TDP1 inhibitor in conjunction with Tpc on cell growth (HEK293FT WT cells): cell growth suppression; also recorded: synergistic effect; also recorded: Suppressed cell growth; effect of TDP1 inhibitor in conjunction with Tpc on cell growth (HEK293FT TDP1−/− cells): not found; also recorded: no effect; intrinsic cytotoxicity [2]: low; enhancement of the Tpc cytotoxicity ([2]; data not shown): no enhancement; intrinsic cytotoxicity ([3]; HCT116): low; dose-dependent action of Tpc in the presence of inhibitor ([3]; HCT116, Figure 4C): enhanced Tpc’s potency; dose-dependent action of inhibitor in the presence of Tpc on cell growth ([3]; HCT, Tpc 900 nM, Figure 4B): no effect; intrinsic cytotoxicity ([4]; IMR-32): low; dose-dependent action of Tpc in the presence of inhibitor ([4]; IMR-32, Figure 4C): synergistic action; dose-dependent action of inhibitor in the presence of Tpc on cell growth ([4]; IMR-32, Tpc 8 nM, Figure 4B): suppressed cell growth; intrinsic cytotoxicity (Krebs-2 carcinoma cells): low
CC1=C[C@@H]2[C@@H](c3ccsc3)OC(C)(C)[C@@H]2CC1 [11k, (1S(R),3aR,7aS)-3,3,6-trimethyl-1-(thiophen-3-yl)-1,3,3a,4,5,7a-hexahydroisobenzofuran]	–	1.6 ± 0.56 µM	–
